Like-named read-outs stand apart in the source and are kept apart here.
Columns and labels:
[1] = target: T1, AuroraB (Homo sapiens, UniProt Q96GD4); assay: AuroraB Homogeneous Time Resolved Fluorescent (HTRF) kinase assay; assay type: biochemical; details: average, read-out: AurB_ _IC50_IP (Avg)
T1 construct: 20 µL of AuroraB FL His; His
Method in brief: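 Full-length His-tagged AuroraB (400 pM) phosphorylates 0.1 µM biotinylated Histone H3 with 23 µM ATP (Km(app)) in HEPES pH 7.5 with Mg/Mn, about 90 min. EDTA-quenched; Eu-anti-phosphoHistoneH3 and SA-APC HTRF, 655/615 nm ratio as phosphorylation.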

[2] = target: T2, AuroraA-TPX2 (Homo sapiens, UniProt O14965); assay: AuroraA-TPX2 Homogeneous Time Resolved Fluorescent (HTRF) kinase assay; assay type: biochemical; details: average, read-out: AurA/TP X2_ IC50_IP (Avg)
T2 construct: 20 µL of AuroraA-TPX2 KD GST; GST
T2 sequence (O14965 133-383 limits assumed): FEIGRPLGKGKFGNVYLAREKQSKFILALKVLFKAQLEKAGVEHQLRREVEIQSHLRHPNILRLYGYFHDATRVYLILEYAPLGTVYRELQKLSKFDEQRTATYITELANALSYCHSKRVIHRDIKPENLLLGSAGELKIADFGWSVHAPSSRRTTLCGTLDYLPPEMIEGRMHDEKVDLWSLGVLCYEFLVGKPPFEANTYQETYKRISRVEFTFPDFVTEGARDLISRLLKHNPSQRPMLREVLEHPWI
T2 sequence (Q9ULW0 1-43 partner limits assumed): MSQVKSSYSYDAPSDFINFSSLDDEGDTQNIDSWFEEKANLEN
Method in brief: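 Aurora-A/TPX2 phosphorylates biotinylated PLK peptide (about 1 µM) with ATP for about 120 min in 60 mM HEPES pH 7.5, 10 mM MgCl2, 2 mM DTT. EDTA quench, overnight equilibration with Eu-anti-phosphoPLK antibody and SA-APC; HTRF read at 615/655 nm after 320 nm excitation.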

[3] = given as numbers, unit inferred

T1 sequence (Q96GD4 whole entry): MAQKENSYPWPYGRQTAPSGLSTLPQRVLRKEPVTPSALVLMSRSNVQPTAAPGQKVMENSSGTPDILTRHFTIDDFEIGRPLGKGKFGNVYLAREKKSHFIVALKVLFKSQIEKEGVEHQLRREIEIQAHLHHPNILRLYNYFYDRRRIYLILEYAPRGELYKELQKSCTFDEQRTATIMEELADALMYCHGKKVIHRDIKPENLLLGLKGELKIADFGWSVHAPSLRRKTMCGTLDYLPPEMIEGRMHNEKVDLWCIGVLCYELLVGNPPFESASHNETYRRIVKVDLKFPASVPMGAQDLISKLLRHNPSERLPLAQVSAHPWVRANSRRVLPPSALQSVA

Row | Compound | IC50 ([1]; given as class symbols) [nM] | IC50 ([2]; given as class symbols) [nM] | IC50 [1, 3] [nM] | IC50 [2, 3] [nM]
1 | CC(=O)OCc1cccc(-c2nnc(Nc3ccc(Oc4ncccc4-c4ccnc(N)n4)cc3)c3ccccc23)n1 [compound 296, (6-(4-((4-((3-(2-amino-4-pyrimidinyl)-2-pyridinyl)oxy)phenyl)amino)-1-phthalazinyl)-2-pyridinyl)methyl acetate] | ≤ 100 | ≤ 100 | – | –
2 | Nc1nccc(-c2cccnc2Oc2ccc(Nc3nnc(-c4cccc(CO)n4)c4ccccc34)cc2)n1 [compound 297, (6-(4-((4-((3-(2-amino-4-pyrimidinyl)-2-pyridinyl)oxy)phenyl)amino)-1-phthalazinyl)-2-pyridinyl)methanol] | ≤ 100 | ≤ 100 | – | –
3 | ONc1nccc(-c2cccnc2Oc2ccc(Nc3nnc(-c4ccccc4)c4ccccc34)cc2)n1 [compound 310, N-(4-((3-(2-(hydroxyamino)-4-pyrimidinyl)-2-pyridinyl)oxy)phenyl)-4-phenyl-1-phthalazinamine] | ≤ 100 | ≤ 100 | – | –
4 | c1ccc(-c2nnc(Nc3ncc(Oc4ncccc4-c4ccncc4)cn3)c3ccccc23)cc1 [compound 311, N-(5-(3,4'-bipyridin-2-yloxy)-2-pyrimidinyl)-4-phenyl-1-phthalazinamine] | 500 to 2500 | 500 to 2500 | – | –
5 | Cc1csc(-c2nnc(Nc3ccc(Oc4ncccc4-c4c[nH]nc4N)c(F)c3)c3ccccc23)n1 [compound 312, N-(4-((3-(3-amino-1H-pyrazol-4-yl)-2-pyridinyl)oxy)-3-fluorophenyl)-4-(4-methyl-1,3-thiazol-2-yl)-1-phthalazinamine] | ≤ 100 | ≤ 100 | – | –
6 | Nc1nccc(-c2cccnc2Oc2ccc(Nc3nnc(-c4ccccc4)c4ccsc34)cn2)n1 [compound 313, N-(6-((3-(2-amino-4-pyrimidinyl)-2-pyridinyl)oxy)-3-pyridinyl)-4-phenylthieno[2,3-d]pyridazin-7-amine] | ≤ 100 | ≤ 100 | – | –
7 | Nc1n[nH]cc1-c1cccnc1Oc1ccc(Nc2nnc(-c3ccccc3)c3ccccc23)cc1F [compound 314, N-(4-((3-(3-amino-1H-pyrazol-4-yl)-2-pyridinyl)oxy)-3-fluorophenyl)-4-phenyl-1-phthalazinamine] | – | – | 2.4 | 4.5
8 | Nc1nccc(-c2cccnc2Oc2ccc(Nc3nnc(-c4ccc(Cl)cc4)c4ccccc34)cn2)n1 [compound 315, N-(6-((3-(2-amino-4-pyrimidinyl)-2-pyridinyl)oxy)-3-pyridinyl)-4-(4-chlorophenyl)-1-phthalazinamine] | ≤ 100 | ≤ 100 | – | –
9 | CS(=O)(=O)c1cccc(-c2nnc(Nc3ccc(Oc4ncccc4-c4ccnc(N)n4)cc3)c3ccccc23)c1 [compound 316, N-(4-((3-(2-amino-4-pyrimidinyl)-2-pyridinyl)oxy)phenyl)-4-(3-(methylsulfonyl)phenyl)-1-phthalazinamine] | ≤ 100 | ≤ 100 | – | –
10 | COc1cccc(-c2nnc(Nc3ccc(Oc4ncccc4-c4c[nH]nc4N)cc3)c3ccccc23)c1 [compound 317, N-(4-((3-(3-amino-1H-pyrazol-4-yl)-2-pyridinyl)oxy)phenyl)-4-(3-(methyloxy)phenyl)-1-phthalazinamine] | ≤ 100 | ≤ 100 | – | –
11 | CS(=O)(=O)c1cccc(-c2nnc(Nc3ccc(Oc4ncccc4-c4ccnc(N)n4)nc3)c3ccccc23)c1 [compound 318, N-(6-((3-(2-amino-4-pyrimidinyl)-2-pyridinyl)oxy)-3-pyridinyl)-4-(3-(methylsulfonyl)phenyl)-1-phthalazinamine] | – | – | 5.6 | 23.8
12 | COc1ccc(-c2nnc(Nc3ccc(Oc4ncccc4-c4ccnc(N)n4)nc3)c3ccccc23)cc1 [compound 319, N-(6-((3-(2-amino-4-pyrimidinyl)-2-pyridinyl)oxy)-3-pyridinyl)-4-(4-(methyloxy)phenyl)-1-phthalazinamine] | ≤ 100 | ≤ 100 | – | –
13 | COc1ccc(-c2nnc(Nc3ccc(Oc4ncccc4-c4ccnc(N)n4)cc3)c3ccccc23)cc1 [compound 320, N-(4-((3-(2-amino-4-pyrimidinyl)-2-pyridinyl)oxy)phenyl)-4-(4-(methyloxy)phenyl)-1-phthalazinamine] | ≤ 100 | ≤ 100 | – | –
14 | CCOc1ccc(-c2nnc(Nc3ccc(Oc4ncccc4-c4ccnc(N)n4)cc3)c3ccccc23)cc1 [compound 321, N-(4-((3-(2-amino-4-pyrimidinyl)-2-pyridinyl)oxy)phenyl)-4-(4-(ethyloxy)phenyl)-1-phthalazinamine] | ≤ 100 | ≤ 100 | – | –
15 | CCOc1ccccc1-c1nnc(Nc2ccc(Oc3ncccc3-c3ccnc(N)n3)cc2)c2ccccc12 [compound 322, N-(4-((3-(2-amino-4-pyrimidinyl)-2-pyridinyl)oxy)phenyl)-4-(2-(ethyloxy)phenyl)-1-phthalazinamine] | ≤ 100 | ≤ 100 | – | –
16 | CN1CCN(CCCNc2nccc(-c3cccnc3Oc3ccc(Nc4nnc(-c5ccccn5)c5ccccc45)cc3)n2)CC1 [compound 323, N-(4-((3-(2-((3-(4-methyl-1-piperazinyl)propyl)amino)-4-pyrimidinyl)-2-pyridinyl)oxy)phenyl)-4-(2-pyridinyl)-1-phthalazinamine] | ≤ 100 | 100 to 500 | – | –
17 | CN(C)C1CCN(CCCNc2nccc(-c3cccnc3Oc3ccc(Nc4nnc(-c5ccccc5)c5ccccc45)cc3)n2)C1 (stereo not drawn) [compound 324, N-(4-((3-(2-((3-(3-(dimethylamino)-1-pyrrolidinyl)propyl)amino)-4-pyrimidinyl)-2-pyridinyl)oxy)phenyl)-4-phenyl-1-phthalazinamine] | ≤ 100 | ≤ 100 | – | –
18 | CC1CN(CCCNc2nccc(-c3cccnc3Oc3ccc(Nc4nnc(-c5ccccc5)c5ccccc45)cc3)n2)CC(C)O1 (stereo not drawn) [compound 326, N-(4-((3-(2-((3-(2,6-dimethyl-4-morpholinyl)propyl)amino)-4-pyrimidinyl)-2-pyridinyl)oxy)phenyl)-4-phenyl-1-phthalazinamine] | ≤ 100 | ≤ 100 | – | –
19 | O=C(O)CCNc1nccc(-c2cccnc2Oc2ccc(Nc3nnc(-c4ccccc4)c4ccccc34)cc2)n1 [compound 327, N-(4-(2-((4-((4-phenyl-1-phthalazinyl)amino)phenyl)oxy)-3-pyridinyl)-2-pyrimidinyl)-beta-alanine] | 500 to 2500 | 100 to 500 | – | –
20 | C[C@H]1CN(CCCNc2nccc(-c3cccnc3Oc3ccc(Nc4nnc(-c5ccccc5)c5ccccc45)cc3)n2)[C@@H](C)CO1 [compound 328, N-(4-((3-(2-((3-((2S,5S)-2,5-dimethyl-4-morpholinyl)propyl)amino)-4-pyrimidinyl)-2-pyridinyl)oxy)phenyl)-4-phenyl-1-phthalazinamine] | – | – | 4.3 | 65
21 | Nc1nccc(-c2cccnc2Oc2ccc(Nc3nnc(-c4cccc(COP(=O)(O)O)c4)c4ccccc34)cc2)n1 [compound 351, (3-(4-((4-((3-(2-amino-4-pyrimidinyl)-2-pyrldinyl)oxy)phenyl)amino)-1-phthalazinyl)pbenyl)methyl dihydrogen phosphate] | ≤ 100 | 100 to 500 | – | –
22 | Nc1nccc(-c2cccnc2Oc2ccc(Nc3nnc(N4CCCC(CO)C4)c4ccccc34)cc2)n1 (stereo not drawn) [compound 352, (1-(4-((4-((3-(2-amino-4-pyrimidinyl)-2-pyridinyl)oxy)phenyl)amino)-1-phthalazinyl)-3-piperidinyl)methanol] | ≤ 100 | ≤ 100 | – | –
23 | Nc1nccc(-c2cccnc2Oc2ccc(Nc3nnc(N4CCCC(O)C4)c4ccccc34)cc2)n1 (stereo not drawn) [compound 354, 1-(4-((4-((3-(2-amino-4-pyrimidinyl)-2-pyridinyl)oxy)phenyl)amino)-1-phthalazinyl)-3-piperidinol] | – | – | 25.9 | 87.4
24 | Nc1nccc(-c2cccnc2Oc2ccc(Nc3nnc(-c4cccc(CCO)c4)c4ccccc34)cc2)n1 [compound 355, 2-(3-(4-((4-((3-(2-amino-4-pyrimidinyl)-2-pyridinyl)oxy)phenyl)amino)-1-phthalazinyl)phenyl)ethanol] | ≤ 100 | ≤ 100 | – | –
25 | Nc1nccc(-c2cccnc2Oc2ccc(Nc3nnc(-c4ccccn4)c4ccccc34)cc2)n1 [compound 356, N-(4-((3-(2-amino-4-pyrimidinyl)-2-pyridinyl)oxy)phenyl)-4-(2-pyridinyl)-1-phthalazinamine] | ≤ 100 | ≤ 100 | – | –
26 | CC(C)(O)c1cccc(-c2nnc(Nc3ccc(Oc4ncccc4-c4ccnc(N)n4)cc3)c3ccccc23)c1 [compound 357, 2-(3-(4-((4-((3-(2-amino-4-pyrimidinyl)-2-pyridinyl)oxy)phenyl)amino)-1-phthalazinyl)phenyl)-2-propanol] | ≤ 100 | ≤ 100 | – | –
27 | Nc1nccc(-c2cccnc2Oc2ccc(Nc3nnc(N4CCC(O)CC4)c4ccccc34)cc2)n1 [compound 358, 1-(4-((4-((3-(2-amino-4-pyrimidinyl)-2-pyridinyl)oxy)phenyl)amino)-1-phthalazinyl)-4-piperidinol] | ≤ 100 | 500 to 2500 | – | –

— patent EP1984353B1, “AURORA KINASE MODULATORS AND METHOD OF USE” (Amgen, Inc, priority 2006, dated 2007)
